# Measured values as given in patent publication US6410571B1, “Heterocyclic carboxamide-containing thiourea inhibitors of herpes viruses containing a substituted phenylenediamine group” (American Home Products Corporation, priority 1998, dated 2002).
# How the values were obtained:
# VZV strain Ellen = test: VZV Antiviral (ELISA) Assay; type: cell-based, varicella-zoster virus; details: human foreskin fibroblast cells; for inhibition at 10 µg/mL: Human alphaherpesvirus 3, read-out: % inhibition 10 ug/ml VZV; for inhibition at 10 µg/mL / % inhibition 10 ug/ml VZV: 10 ug/ml; for IC50: Human alphaherpesvirus 3, read-out: IC50 (ug/ml) VZV
# Method: For the generation of stock VZV to be used in the assay, VZV strain Ellen (ATCC #VR-1367) is used to infect human foreskin fibroblast (HFF) cells at low multiplicity (less than 0.1) and incubated overnight at 37° C. in 5% CO2. After the overnight incubation, the mixture of uninfected and VZV-infected HFF infected cells are then harvested and added to each well of 96-well plates (3.5×10^4 cells in 100 μl DMEM supplemented with 2% FBS) which contain test compound or the reference standard drug control (in 100 μl DMEM supplemented with 2% FBS per well). These cells are incubated for three days at 37° C. in 5% CO2, then fixed for ELISA assay. The primary antibody is murine anti-VZV glycoprotein II monoclonal antibody (Applied Biosystems, Inc. #13-145-100) and the secondary antibody is goat anti-mouse IgG linked to β-galactosidase. Thus the extent of viral replication is determined by assessing β-galactosidase activity by quantifying the generation of the 4-methyl umbelliferone fluorescent cleavage product after addition of the methyl umbelliferyl-β-D-galactoside (Sigma #M1633) substrate on a microfluorimeter (365 nm for excitation and 450 nm for emission). Antiviral activity (IC50) of the test compound is determined by comparing the flourescence obtained in absence of compound to that obtained in the presence of compound.
# HSV-1 = test: HSV Antiviral (ELISA) Assay; type: cell-based, herpes simplex virus type 1; details: Vero cells; for IC50: Human alphaherpesvirus 1, read-out: IC50 (ug/ml) HSV
# Method: Vero cells (ATCC #CCL-81) are plated on 96-well tissue culture plates at 3.5×10^4 cells per 100 μl tissue culture DMEM (Dulbecco's modified Eagle media) supplemented with 2% fetal bovine serum (FBS) in each well. After overnight incubation @37° C. (in 5% CO2) and 30 minutes prior to infection with HSV-1 (multiplicity of infection equal to 0.006), cells are either untreated, or treated with test compound (multiple concentrations) or reference standard drug control. After approximately 24 hours post-infection incubation @37° C. (in 5% CO2), cells are fixed for ELISA assay. The primary antibody is murine anti-HSV glycoprotein D monoclonal primary antibody and the secondary antibody is goat anti-mouse IgG linked to β-galactosidase. Thus the extent of viral replication is determined by assessing β-galactosidase activity by quantifying the generation of the 4-methyl umbeliiferone fluorescent cleavage product after addition of the methyl umbelliferyl-β-D-galactoside (Sigma #M1633) substrate on a microfluorimeter (365 nm for excitation and 450 nm for emission). Antiviral activity (IC50) of the test compound is determined by comparing the flourescence obtained in absence of compound to that obtained in the presence of compound.
# HCMV wild-type = test: HCMV yield assay; type: cell-based, human cytomegalovirus; details: human foreskin fibroblasts; for IC50: Human betaherpesvirus 5, Fibroblast, read-out: IC50 (ug/ml) HCMV
# Method: Yield assay. Monolayer cultures of human foreskin fibroblasts are infected with HCMV wild-type, typically at a multiplicity of infection equal to 0.2, in the presence of inhibitor compound (varying concentrations). At three days post-infection, total virus produced in these cultures (i.e. virus yield) is assessed by harvesting and titering the virus in 12-well plates of cultured human foreskin fibroblasts (done in the absence of inhibitor). Plaques are quantified at 2 weeks post-infection. An inhibitor of HCMV is identified by the reduction in titer of virus yield in the presence, compared to the titer in the absence of compound. In this assay, the relative anti-HCMV activity of an inhibitor is typically determined by calculating the IC50 or IC90 value, that is, the amount of compound required to reduce the virus yield by 50% or 90%, respectively. Table I describes IC50 data for compounds tested against HCMV.
Compound,inhibition at 10 µg/mL (VZV strain Ellen),IC50 (VZV strain Ellen),IC50 (HSV-1),IC50 (HCMV wild-type),% inhibition 10 ug/ml VZV (VZV strain Ellen),IC50 (ug/ml) VZV (VZV strain Ellen),IC50 (ug/ml) HSV (HSV-1),IC50 (ug/ml) HCMV (HCMV wild-type)
"COc1cc(OC)c(NC(=S)Nc2ccc(NC(=O)c3ccco3)c(C(=O)Nc3ccccc3)c2)cc1Cl [Example 302, Furan-2-carboxylic acid {4-[3-(5-chloro-2,4-dimethoxy-phenyl)-thioureido]-2-phenylcarbamoyl-phenyl}-amide]",5%,> 10 µg/mL,10 µg/mL,> 10 µg/mL,,,,
"COc1cc(OC)c(NC(=S)Nc2ccc(NC(=O)c3ccco3)c(C#N)c2)cc1Cl [Example 306, Furan-2-carboxylic acid {4-[3-(5-chloro-2,4-dimethoxy-phenyl)-thioureido]-2-cyano-phenyl}-amide]",33%,> 10 µg/mL,> 10 µg/mL,2.5 µg/mL,,,,
"COc1cc(OC)c(NC(=S)Nc2ccc(NC(=O)c3ccco3)cc2C(F)(F)F)cc1Cl [Example 858, Furan-2-carboxylic acid {4-[3-(5-chloro-2,4-dimethoxy-phenyl)-thioureido]-3-trifluoromethyl-phenyl}-amide]",26%,> 10 µg/mL,2.5 µg/mL,2 µg/mL,,,,
"COc1cc(OC)c(NC(=S)Nc2ccc(NC(=O)c3ccco3)c(Cl)c2)cc1Cl [Example 307, Furan-2-carboxylic acid {2-chloro-4-[3-(5-chloro-2,4-dimethoxy-phenyl)-thioureido]-phenyl}-amide]",30%,> 10 µg/mL,> 10 µg/mL,5 µg/mL,,,,
"COc1cc(OC)c(NC(=S)Nc2ccc(NC(=O)c3ccco3)c(C(=O)c3ccccc3)c2)cc1Cl [Example 294, Furan-2-carboxylic acid {2-benzoyl-4-[3-(5-chloro-2,4-dimethoxy-phenyl)-thioureido]-phenyl}-amide]",0%,> 10 µg/mL,> 50 µg/mL,> 10 µg/mL,,,,
"COc1cc(OC)c(NC(=S)Nc2ccc(NC(=O)c3ccco3)c(C)c2)cc1Cl [Example 311, Furan-2-carboxylic acid {4-[3-(5-chloro-2,4-dimethoxy-phenyl)-thioureido]-2-methyl-phenyl}-amide]",13%,> 10 µg/mL,12 µg/mL,6 µg/mL,,,,
"COc1cc(OC)c(NC(=S)Nc2cc(OC)c(NC(=O)c3ccco3)cc2OC)cc1Cl [Example 276, Furan-2-carboxylic acid {4-[3-(5-chloro-2,4-dimethoxy-phenyl)-thioureido]-2,5-dimethoxy-phenyl}-amide]",75%,4 µg/mL,> 10 µg/mL,> 10 µg/mL,,,,
"5-[3-(5-Chloro-2,4-dimethoxy-phenyl)-thioureido]-2-[(furan-2-carbonyl)-amino]-benzoic acid [Example 339]",,,,,11%,>10 µg/mL,>50 µg/mL,50 µg/mL
"COc1cc(OC)c(NC(=S)Nc2ccc(NC(=O)c3ccco3)c3ccccc23)cc1Cl [Example 324, Furan-2-carboxylic acid {4-[3-(5-chloro-2,4-dimethoxy-phenyl)-thioureido]-naphthalen-1-yl}-amide]",24%,> 10 µg/mL,4 µg/mL,8 µg/mL,,,,
"COc1cc(OC)c(NC(=S)Nc2cc(C)c(NC(=O)c3ccco3)cc2Cl)cc1Cl [Example 328, Furan-2-carboxylic acid {5-chloro-4[3-(5-chloro-2,4-dimethoxy-phenyl)-thioureido]-2-methyl-phenyl}-amide]",44%,> 10 µg/mL,> 10 µg/mL,> 10 µg/mL,,,,
"COc1cc(OC)c(NC(=S)Nc2ccc(NC(=O)c3ccco3)cc2Cl)cc1Cl [Example 356, Furan-2-carboxylic acid {3-chloro-4-[3-(5-chloro-2,4-dimethoxy-phenyl)thioureido]-phenyl}-amide]",72%,1.9 µg/mL,0.5 µg/mL,0.4 µg/mL,,,,
"COc1cc(OC)c(NC(=S)Nc2ccc(NC(=O)c3ccco3)c(OC)c2)cc1Cl [Example 304, Furan-2-carboxylic acid {4-[3-(5-chloro-2,4-dimethoxy-phenyl)-thioureido]-2-methoxy-phenyl}-amide]",44%,11 µg/mL,8 µg/mL,7 µg/mL,,,,
"COc1cc(OC)c(NC(=S)Nc2ccc(NC(=O)c3ccco3)cc2OC)cc1Cl [Example 390, Furan-2-carboxylic acid {4-[3-(5-chloro-2,4-dimethoxy-phenyl)-thioureido]-3-methoxy-phenyl}-amide]",61%,> 10 µg/mL,0.5 µg/mL,> 10 µg/mL,,,,
"Furan-2-carboxylic acid {4-[3-(5-chloro-2,4-dimethoxy-phenyl)-thioureido]-3-cyano-phenyl}-amide [Example 382]",,,,,46%,>10 µg/mL,>10 µg/mL,>10 µg/mL
"COc1cc(OC)c(NC(=S)Nc2ccc(NC(=O)c3ccco3)cc2C)cc1Cl [Example 296, Furan-2-carboxylic acid {4-[3-(5-chloro-2,4-dimethoxy-phenyl)-thioureido]-3-methyl-phenyl}-amide]",48%,> 10 µg/mL,1.2 µg/mL,8 µg/mL,,,,
"COc1cc(OC)c(NC(=S)Nc2cc(OC)c(NC(=O)c3ccco3)cc2C)cc1Cl [Example 287, Furan-2-carboxylic acid {4-[3-(5-chloro-2,4-dimethoxy-phenyl)-thioureido]-2-methoxy-5-methyl-phenyl}-amide]",5%,> 10 µg/mL,8 µg/mL,> 50 µg/mL,,,,
"COc1cc(OC)c(NC(=S)Nc2cc(O)c(NC(=O)c3ccco3)cc2Cl)cc1Cl [Example 320, Furan-2-carboxylic acid {5-chloro-4-[3-(5-chloro-2,4-dimethoxy-phenyl)-thioureido]-2-hydroxy-phenyl}-amide]",50%,> 10 µg/mL,8 µg/mL,8 µg/mL,,,,
"COc1cc(OC)c(NC(=S)Nc2ccc(NC(=O)c3ccco3)c(C(F)(F)F)c2)cc1Cl [Example 308, Furan-2-carboxylic acid {4-[3-(5-chloro-2,4-dimethoxy-phenyl)-thioureido]-2-trifluoromethyl-phenyl}-amide]",100%,4 µg/mL,10 µg/mL,10 µg/mL,,,,
